Converted amounts (≈) assume the structure as drawn. Like-named read-outs stand apart in the source and are kept apart here.
Assays:
solubility in water = format: physicochemical
Procedure: The n-octylsparsomycin is poorly dissolved in water (about 0.2 mg/ml water), whereas benzylsparsomycin is dissolved well in water (1.5 mg/ml water). As a consequence, the use of the latter compound is highly attractive.

pharmacokinetics in dog = conditions: iv
[1] = test system: ribosomes from E. coli (protein synthesis); experiment: inhibition of polyphenylalanine synthesis, cell-free system; format: biochemical; conditions: 30 min, read-out: ED50 E. coli polyphe
Procedure: The activity of the novel compounds was also measured in two cell-free systems, namely Saccharomyces cerevisiae and E. coli, a prokaryotic and a eukaryotic system, respectively.
(§1) Polyphenylalanine synthesis. The reaction mixture was slightly different for E. coli and for yeast.
E. coli. […] (^3 H)phenylalanine 30 μM (about 60 cpm/pmol) was added to start the reaction. Incubation was at 37° C. for 30 min. The reaction was stopped by addition of 1 ml of 10% TCA and the samples filtered through glass fiber. The filters were washed with 10 ml of cold 10% TCA, dried and counted for radioactivity.

[2] = test system: ribosomes from Saccharomyces cerevisiae (protein synthesis); experiment: as above; format: biochemical; conditions: 30 min, read-out: ED50 s.c. polyphe
Procedure: (§2) The activity of the novel compounds was also measured in two cell-free systems, namely Saccharomyces cerevisiae and E. coli, a […]. The inhibition of the protein biosynthesis was measured, and this in two ways, by means of both the fragment reaction (R. E. Monro, Methods Enzymol. 1971, 20, 472) and the inhibition of the polyphenylalanine synthesis (N. W. Nirenberg, H. Matthei, Proc.Natl. Acad. Sci. USA 1961, 47, 1588). The concentration of sparsomycin or an analog giving 50% inhibition of the protein synthesis relative to the control is given as ED50.
as §1
E. coli. The reaction mixture (50 μl) contained 65 mM Tris-HCl pH 7.6, 15 mM MgCl2, 90 mM KCl, 15 mM β-mercaptoethanol, 1 mM GTP, 10 mM ATP, 0.2 mg/ml of polyuridylic acid, 1.5 mg/ml of tRNA, 10 μM of ribosomes, 2.5 mg/ml of phosphoenolpyruvate, 20 μg/ml of pyruvate kinase, the required concentration of sparsomycin analog, as indicated in the text, and 5 μl of supernatant fraction S-100. (^3 H)phenylalanine 30 μM (about 60 cpm/pmol) was added to start the reaction. Incubation was at 37° C. for 30 min. The reaction was stopped by addition of 1 ml of 10% TCA and the samples filtered through glass fiber. The filters were washed with 10 ml of cold 10% TCA, dried and counted for radioactivity.
Yeast. The test was carried out as indicated above for E. Coli but replacing the phosphoenol pyruvate and pyruvate kinase by creatine phosphokinase (50 μg/ml) and creatine phosphate (20 mM). The incubation was performed at 30° C. for 30 min. and the samples processed as above.
In these conditions the control samples polymerized 3 to […] 14 molecules of phenylalanine per ribosome in the case of yeast and E. coli respectively. […]

[3] = test system: ribosomes from E. coli (peptidyl transferase); experiment: fragment reaction, cell-free system; format: biochemical; conditions: 30% ethanol in water, 30 min, read-out: ED50 E. coli fragment reaction
Procedure: as §2
(§3) Fragment reaction. The reaction described originally by Monro (see reference in the text) was carried out in 150 μl of 33 mM Tris-HCl pH 7.4, 270 mM KCl, 13 mM magnesium acetate containing 1 mg/ml of ribosomes, 2.10^-3 M puromycin, 1 pmol of (^3 H)Leu-ACCAC(U), the required concentration of sparsomycin analog as indicated in the text and 33% ethanol. The reaction was initiated by the addition of the alcohol and allowed to proceed at 0° C. for 30 min. and then stopped by the addition of 100 μl of 0.3M sodium acetate pH 5.5 saturated with MgSO4. The samples were extracted with 1.5 ml of ethyl acetate and 1 ml of the organic phase was checked for radioactivity.
(§4) The 3' terminal pentanucleotide (^3 H)Leu-ACCAC(U) was prepared from (^3 H)Leu-tRNA by ribonuclease T1 as described (Monro, as above).
(§5) Ribosomes and supernatant fractions from E. coli and Saccharomyces cerevisiae were prepared according to standard procedures (Staehelin, T. and Maglott D. R. (1971). Methods Enzymol. 20, 449-456; Sanchez-Madrid, F., Reyes, R., Conde, P. and Ballesta, J. P. G. (1979) Eur. J. Biochem. 98, 409-416).

[4] = test system: ribosomes from Saccharomyces cerevisiae (peptidyl transferase); experiment: fragment reaction, cell-free system; format: biochemical; conditions: 30% ethanol in water, 30 min, read-out: ED50 s.c. fragment reaction
Procedure: as §2, §3, §4, §5

[5] = acute toxicity (LDx values); format: in vivo; conditions: in vivo, mouse
Excerpt: (§6) The acute LDx values (lethal dose for x% of the animals) are shown below.

leukemia L 1210 cells = experiment: in-vitro clonogenic L 1210 assay (inhibition of colony formation in soft agar); format: cell-based; conditions: for IC50: Mus musculus, L1210, 72 h, read-out: ID50 (dose giving 50% inhibition of L 1210 colony formation)
Procedure: The in-vitro clonogenic assay was effected in leukemia L 1210 cells in soft agar medium (0.3%). There is a good correlation between the activity in vitro and that in vivo of the medicaments investigated. On the basis of the findings in the in-vitro analysis, therefore, the in-vivo activity can be predicted with good results. In the analysis, the inhibition of the L 1210 colony formation by sparsomycin and derivates thereof is determined for various concentrations, and the dose giving 50% inhibition of the colony formation, as compared with non-treated control cells is calculated (ID50). The analysis is carried out as follows (variant of the method described in Cancer Chemother.Rep. (1967), 51, 451).
From a suspension culture one hundred L 1210 cells are plated out in 35 mm culture dishes (Falcon) containing 1 ml soft agar culture medium and the compound to be investigated in suitable concentrations. The soft agar culture medium consists of Dulbecco's medium supplemented with 20% horse serum, 60 μmole 2-mercaptoethanol, 20 mg/ml L-asparagine, 75 mg/ml DEAE dextran (molecular weight 2×10^6) and 0.3% bacto agar (Difco). The culture dishes were incubated at 37° C. in an atmosphere of 10% CO2 in humidified air for 3 days. After this period of continuous exposure to the medicament the colonies were counted and dose-effect curves made. From these curves, the medicament dose is calculated which causes 50% inhibition of the colony formation as compared with non-treated control cells.

whole reticulocytes = conditions: Biochem.Biophys. Acta (1966), 119, 109; cited from earlier work
[6] = clinical tests (Cancer.Chemother.Rep. (1969), 43, 29); cited from earlier work
mouse = experiment: acute toxicity (LDx values); format: in vivo; conditions: i.p.
Excerpt: as §6

[7] = L 1210 cells, soft agar 0.3%, 3 days continuous exposure

SMILES | solubility (solubility in water; read-out: solubility in water) | AUC (pharmacokinetics in dog; in vivo, 0.7 mg/kg) | half-life (pharmacokinetics in dog; in vivo, 0.7 mg/kg) | IC50 [1] | IC50 [2] | IC50 [3] | IC50 [4] | IC50 (leukemia L 1210 cells; [7]) | IC50 (leukemia L 1210 cells) | further results
CCCCCCCCSC[S@+]([O-])C[C@H](CO)NC(=O)/C=C/c1c(C)[nH]c(=O)[nH]c1=O [n-octylsparsomycin, n-octyl-sparsomycin (Sc -Rs)] | ~200 µg/mL (≈ 435 µM) | 1100 ng·h/mL | 1.1 h | 1.5 µM | 0.35 µM | 80 µM | 180 µM | 0.047 µg/mL (≈ 0.102 µM) |  | dose excreted (pharmacokinetics in dog; bile, 0.7 mg/kg): 3.4%; AUC (pharmacokinetics in dog; in vivo, 0.9 mg/kg): 1200 ng·h/mL; half-life (pharmacokinetics in dog; in vivo, 0.9 mg/kg): 1.6 h; dose excreted (pharmacokinetics in dog; urine, 0.7 mg/kg): 0%; LD50 ([5]; iv): > 30 mg/kg; activity relative to sparsomycin proper (leukemia L 1210 cells; L 1210 colony formation, concentrations in ng/ml): approximately 3; activity relative to sparsomycin, concentrations expressed in μmole/ml (leukemia L 1210 cells; L 1210 colony formation, concentrations in μmole/ml): approximately four times higher
CSC[S@+]([O-])C[C@H](CO)NC(=O)/C=C/c1c(C)[nH]c(=O)[nH]c1=O [sparsomycin, Sparsomycin (Sc -Rs)] |  | 1300 ng·h/mL | 1.1 h | 9 µM | 4 µM | 6 µM | 15 µM |  | 0.15 µg/mL (≈ 0.415 µM) | activity against whole reticulocytes (whole reticulocytes): not active; dose excreted (pharmacokinetics in dog; in vivo, 0.7 mg/kg, Recovery in urine, i.v. bolus): 24%; AUC (pharmacokinetics in dog; in vivo, 1.48 mg/kg): 10800 ng·h/mL; half-life (pharmacokinetics in dog; in vivo, 1.48 mg/kg): 2.3 h; dose excreted (pharmacokinetics in dog; in vivo, 1.48 mg/kg, Recovery in gall liquid, i.v. bolus): 2%; dose excreted (pharmacokinetics in dog; in vivo, 1.48 mg/kg, Recovery in urine, i.v. bolus): 55%; toxicity in clinical tests [6]: eye toxicity; LD10 (mouse): 8.0 mg per kg mouse; LD50 ([5]; ip): 14 mg/kg
CSC[S@+]([O-])C[C@H](COC(C)=O)NC(=O)/C=C/c1c(C)[nH]c(=O)[nH]c1=O [O--acetylsparsomycin, O-acetyl-sparsomycin (Sc -Rs)] |  |  |  | 8 µM | 3 µM | 15 µM | 50 µM | 0.15 µg/mL (≈ 0.372 µM) |  | 
Cc1[nH]c(=O)[nH]c(=O)c1C=CC(=O)NC(CO)C[S+]([O-])CSCc1ccccc1 (stereo not shown) [benzylsparsomycin, Benzylsparsomycin (Sc -Rs)] | 1500 µg/mL (≈ 3430 µM) |  |  | 0.8 µM |  |  |  |  | 0.048 µg/mL (≈ 0.11 µM) | solubility (solubility in water; H2O, pH=7, read-out: Solubility in H2O (pH=7)): 1500 µg/mL (≈ 3430 µM)

From US4581360A, “Sparsomycin (Sc -Rs) derivative; pharmaceutical composition having anti-tumor activity” (priority 1982, dated 1986)
